Assay results reported in ChEMBL document CHEMBL5625252, “Synthesis of peptidomimetics as antibiotic adjuvants for combination with aztreonam to combat MDR Pseudomonas aeruginosa” (Eur J Med Chem, 2023).
Converted amounts (≈) assume the structure as drawn. The source made the active and inactive calls. The rule behind the calls is not given here. Where a SMILES comes first, the peptide text is derived from it. The star is where a group is joined. βNA = c1ccc2cc(N*)ccc2c1

What was measured:
Pseudomonas aeruginosa [1] = experiment: Synergistic antibacterial activity against Pseudomonas aeruginosa 23-Y372 assessed as aztreonam MIC at 128 ug/ml incubated for 18 hrs by checkerboard method; assay type: functional; details: dose 128 µg/ml
Pseudomonas aeruginosa [2] = experiment: Antibacterial activity against Pseudomonas aeruginosa 16-2 at 128 ug/ml measured upto 24 hrs in presence of aztreonam by time-kill assay; assay type: functional, organism-based; details: dose 128.0 µg/ml
Pseudomonas aeruginosa [3] = experiment: Synergistic antibacterial activity against Pseudomonas aeruginosa 13-3 assessed as fractional inhibitory concentration index at 128 ug/ml incubated for 18 hrs in presence of aztreonam by checkerboard method; assay type: functional; details: dose 128 µg/ml
Pseudomonas aeruginosa [4] = experiment: Synergistic antibacterial activity against Pseudomonas aeruginosa 12-1 assessed as aztreonam MIC in CAMH broth medium supplemented with 0.41 to 0.51 mM Mg2+ by checkerboard assay; assay type: functional
Pseudomonas aeruginosa [5] = experiment: Synergistic antibacterial activity against Pseudomonas aeruginosa 21-7 assessed as aztreonam MIC at 128 ug/ml incubated for 18 hrs by checkerboard method; assay type: functional; details: dose 128 µg/ml
Pseudomonas aeruginosa [6] = experiment: Antibacterial activity against Pseudomonas aeruginosa K854 overexpressing MexAB-OprM assessed as fractional inhibitory concentration index upto 128 ug/ml incubated for 18 hrs in presence of aztreonam by checkerboard method; assay type: functional; details: dose <= 128 µg/ml
Pseudomonas aeruginosa [7] = experiment: Synergistic antibacterial activity against Pseudomonas aeruginosa 13-17 assessed as fractional inhibitory concentration index at 128 ug/ml incubated for 18 hrs in presence of aztreonam by checkerboard method; assay type: functional; details: dose 128 µg/ml
Pseudomonas aeruginosa [8] = experiment: Synergistic antibacterial activity against Pseudomonas aeruginosa 19-46 assessed as aztreonam MIC at 128 ug/ml incubated for 18 hrs by checkerboard method; assay type: functional; details: dose 128 µg/ml
Pseudomonas aeruginosa [9] = experiment: Synergistic antibacterial activity against Pseudomonas aeruginosa 19-55 assessed as aztreonam MIC at 128 ug/ml incubated for 18 hrs by checkerboard method; assay type: functional; details: dose 128 µg/ml
Pseudomonas aeruginosa [10] = experiment: Antibacterial activity against Pseudomonas aeruginosa 12-1 in CAMH broth medium supplemented with 0.41 to 0.51 mM Mg2+ by checkerboard assay; assay type: functional
Pseudomonas aeruginosa [11] = experiment: Antibacterial activity against Pseudomonas aeruginosa 21-7 assessed as inhibition of bacterial growth incubated for 18 hrs by agar dilution method; assay type: functional
Pseudomonas aeruginosa [12] = experiment: Antibacterial activity against Pseudomonas aeruginosa PAO1 at 128 ug/ml measured upto 24 hrs in presence of aztreonam by time-kill assay; assay type: functional, organism-based; details: dose 128.0 µg/ml
Pseudomonas aeruginosa [13] = experiment: Synergistic antibacterial activity against Pseudomonas aeruginosa PAO1 assessed as aztreonam MIC in CAMH broth medium supplemented with 20.99 to 21.09 mM Mg2+ by checkerboard assay; assay type: functional
Pseudomonas aeruginosa [14] = experiment: Antibacterial activity against Pseudomonas aeruginosa 16-11 assessed as inhibition of bacterial growth incubated for 18 hrs by agar dilution method; assay type: functional
Pseudomonas aeruginosa [15] = experiment: Synergistic antibacterial activity against Pseudomonas aeruginosa 23-Y539 assessed as aztreonam MIC at 128 ug/ml incubated for 18 hrs by checkerboard method; assay type: functional; details: dose 128 µg/ml
Pseudomonas aeruginosa [16] = experiment: Synergistic antibacterial activity against Pseudomonas aeruginosa 23-Y511 assessed as fractional inhibitory concentration index at 128 ug/ml incubated for 18 hrs in presence of aztreonam by checkerboard method; assay type: functional; details: dose 128 µg/ml
Pseudomonas aeruginosa [17] = experiment: Synergistic antibacterial activity against Pseudomonas aeruginosa 23-Y364 assessed as fractional inhibitory concentration index at 128 ug/ml incubated for 18 hrs in presence of aztreonam by checkerboard method; assay type: functional; details: dose 128 µg/ml
Pseudomonas aeruginosa [18] = experiment: Synergistic antibacterial activity against Pseudomonas aeruginosa 21-8 assessed as fractional inhibitory concentration index at 128 ug/ml incubated for 18 hrs in presence of aztreonam by checkerboard method; assay type: functional; details: dose 128 µg/ml
Pseudomonas aeruginosa [19] = experiment: Antibacterial activity against Pseudomonas aeruginosa 13-35 assessed as inhibition of bacterial growth incubated for 18 hrs by agar dilution method; assay type: functional
Pseudomonas aeruginosa [20] = experiment: Synergistic antibacterial activity against Pseudomonas aeruginosa 13-35 assessed as aztreonam MIC in CAMH broth medium supplemented with 20.99 to 21.09 mM Mg2+ by checkerboard assay; assay type: functional
Pseudomonas aeruginosa [21] = experiment: Synergistic antibacterial activity against Pseudomonas aeruginosa 23-Y372 assessed as fractional inhibitory concentration index at 128 ug/ml incubated for 18 hrs in presence of aztreonam by checkerboard method; assay type: functional; details: dose 128 µg/ml
Pseudomonas aeruginosa [22] = experiment: Synergistic antibacterial activity against Pseudomonas aeruginosa 13-35 in CAMH broth medium supplemented with 20.99 to 21.09 mM Mg2+ in presence of aztreonam by checkerboard assay; assay type: functional
Pseudomonas aeruginosa [23] = experiment: Antibacterial activity against Pseudomonas aeruginosa 23-Y539 assessed as inhibition of bacterial growth incubated for 18 hrs by agar dilution method; assay type: functional
Pseudomonas aeruginosa [24] = experiment: Antibacterial activity against Pseudomonas aeruginosa 12-1 assessed as inhibition of bacterial growth incubated for 18 hrs by agar dilution method; assay type: functional
Pseudomonas aeruginosa [25] = experiment: Synergistic antibacterial activity against Pseudomonas aeruginosa 16-2 assessed as fractional inhibitory concentration index at 128 ug/ml incubated for 18 hrs in presence of aztreonam by checkerboard method; assay type: functional; details: dose 128 µg/ml
Pseudomonas aeruginosa [26] = experiment: Antibacterial activity against Pseudomonas aeruginosa 16-2 infected in Galleria mellonella assessed as larvae survival rate at 100 mg/kg after 96 hrs of innoculation; assay type: functional
Pseudomonas aeruginosa [27] = experiment: Antibacterial activity against Pseudomonas aeruginosa PAO1 in CAMH broth medium supplemented with 20.99 to 21.09 mM Mg2+ by checkerboard assay; assay type: functional
Pseudomonas aeruginosa [28] = experiment: Antibacterial activity against Pseudomonas aeruginosa 16-2 at 128 ug/ml measured upto 24 hrs by time-kill assay; assay type: functional, organism-based; details: dose 128.0 µg/ml
Pseudomonas aeruginosa [29] = experiment: Synergistic antibacterial activity against Pseudomonas aeruginosa PAO1 in CAMH broth medium supplemented with 0.41 to 0.51 mM Mg2+ in presence of aztreonam by checkerboard assay; assay type: functional
Pseudomonas aeruginosa [30] = experiment: Synergistic antibacterial activity against Pseudomonas aeruginosa 16-11 assessed as aztreonam MIC in CAMH broth medium supplemented with 0.41 to 0.51 mM Mg2+ by checkerboard assay; assay type: functional
Pseudomonas aeruginosa [31] = experiment: Synergistic antibacterial activity against Pseudomonas aeruginosa PAO1 assessed as aztreonam MIC in CAMH broth medium supplemented with 0.41 to 0.51 mM Mg2+ by checkerboard assay; assay type: functional
Pseudomonas aeruginosa [32] = experiment: Synergistic antibacterial activity against Pseudomonas aeruginosa 21-2 assessed as aztreonam MIC at 128 ug/ml incubated for 18 hrs by checkerboard method; assay type: functional; details: dose 128 µg/ml
Pseudomonas aeruginosa [33] = experiment: Synergistic antibacterial activity against Pseudomonas aeruginosa 16-2 assessed as aztreonam MIC at 128 ug/ml incubated for 18 hrs by checkerboard method; assay type: functional; details: dose 128 µg/ml
Pseudomonas aeruginosa [34] = experiment: Antibacterial activity against Pseudomonas aeruginosa 16-11 in CAMH broth medium supplemented with 0.41 to 0.51 mM Mg2+ by checkerboard assay; assay type: functional
Pseudomonas aeruginosa [35] = experiment: Synergistic antibacterial activity against Pseudomonas aeruginosa 16-11 assessed as fractional inhibitory concentration index at 128 ug/ml incubated for 18 hrs in presence of aztreonam by checkerboard method; assay type: functional; details: dose 128 µg/ml
Pseudomonas aeruginosa [36] = experiment: Synergistic antibacterial activity against Pseudomonas aeruginosa 23-Y417 assessed as fractional inhibitory concentration index at 128 ug/ml incubated for 18 hrs in presence of aztreonam by checkerboard method; assay type: functional; details: dose 128 µg/ml
Pseudomonas aeruginosa [37] = experiment: Synergistic antibacterial activity against Pseudomonas aeruginosa PAO1 assessed as aztreonam MIC at 128 ug/ml incubated for 18 hrs by checkerboard method; assay type: functional; details: dose 128 µg/ml
Pseudomonas aeruginosa [38] = experiment: Antibacterial activity against Pseudomonas aeruginosa PAO1 in CAMH broth medium supplemented with 0.41 to 0.51 mM Mg2+ by checkerboard assay; assay type: functional
Pseudomonas aeruginosa [39] = experiment: Synergistic antibacterial activity against Pseudomonas aeruginosa 23-Y539 assessed as fractional inhibitory concentration index at 128 ug/ml incubated for 18 hrs in presence of aztreonam by checkerboard method; assay type: functional; details: dose 128 µg/ml

For NCCC[C@H](NC(=O)C[C@@H](N)Cc1ccccc1)C(=O)Nc1ccc2ccccc2c1, the MIC (Pseudomonas aeruginosa [1]) was 4 µg/mL, the Activity (Pseudomonas aeruginosa [2]) was “Active” and the “fractional inhibitory concentration index (FICI)” value (Pseudomonas aeruginosa [3]) was 0.375. The MIC (Pseudomonas aeruginosa [4]) was 16 µg/mL, the MIC (Pseudomonas aeruginosa [5]) was 64 µg/mL and the “fractional inhibitory concentration index (FICI)” value (Pseudomonas aeruginosa [6]) was <0.5. For the same molecule, the “fractional inhibitory concentration index (FICI)” value (Pseudomonas aeruginosa [7]) was 0.313, the MIC (Pseudomonas aeruginosa [8]) was 16 µg/mL and the MIC (Pseudomonas aeruginosa [9]) was 8 µg/mL. The MIC (Pseudomonas aeruginosa [10]) was 512 µg/mL, the MIC (Pseudomonas aeruginosa [11]) was 512 µg/mL (≈ 1220 µM) and the Activity (Pseudomonas aeruginosa [12]) was “Active”. It also gave an MIC (Pseudomonas aeruginosa [13]) of 8 µg/mL, an MIC (Pseudomonas aeruginosa [14]) of 512 µg/mL (≈ 1220 µM) and an MIC (Pseudomonas aeruginosa [15]) of 4 µg/mL. The “fractional inhibitory concentration index (FICI)” value (Pseudomonas aeruginosa [16]) was 1, the “fractional inhibitory concentration index (FICI)” value (Pseudomonas aeruginosa [17]) was <0.281 and the “fractional inhibitory concentration index (FICI)” value (Pseudomonas aeruginosa [18]) was <0.5. The MIC (Pseudomonas aeruginosa [19]) was 512 µg/mL (≈ 1220 µM), the MIC (Pseudomonas aeruginosa [20]) was 32 µg/mL and the “fractional inhibitory concentration index (FICI)” value (Pseudomonas aeruginosa [21]) was 0.375. For the same molecule, the MIC (Pseudomonas aeruginosa [22]) was 128 µg/mL, the MIC (Pseudomonas aeruginosa [23]) was 512 µg/mL (≈ 1220 µM) and the MIC (Pseudomonas aeruginosa [24]) was 512 µg/mL (≈ 1220 µM). The “fractional inhibitory concentration index (FICI)” value (Pseudomonas aeruginosa [25]) was 0.5, the Activity (Pseudomonas aeruginosa [26]) was 20% and the MIC (Pseudomonas aeruginosa [27]) was 512 µg/mL. For the same molecule, the Activity (Pseudomonas aeruginosa [28]) was “inactive”, the MIC (Pseudomonas aeruginosa [29]) was 128 µg/mL and the MIC (Pseudomonas aeruginosa [30]) was 2 µg/mL. It also gave an MIC (Pseudomonas aeruginosa [31]) of 2 µg/mL, an MIC (Pseudomonas aeruginosa [32]) of 16 µg/mL and an MIC (Pseudomonas aeruginosa [33]) of 16 µg/mL. For the same molecule, the MIC (Pseudomonas aeruginosa [34]) was 512 µg/mL, the “fractional inhibitory concentration index (FICI)” value (Pseudomonas aeruginosa [35]) was 0.5 and the “fractional inhibitory concentration index (FICI)” value (Pseudomonas aeruginosa [36]) was <0.5. The MIC (Pseudomonas aeruginosa [37]) was 2 µg/mL, the MIC (Pseudomonas aeruginosa [38]) was 512 µg/mL and the “fractional inhibitory concentration index (FICI)” value (Pseudomonas aeruginosa [39]) was 0.313.
With N=C(N)NCCC[C@H](NC(=O)[C@@H](N)Cc1ccccc1)C(=O)Nc1ccc2ccccc2c1 [PABETAN] (H-Phe-Arg-βNA) the “fractional inhibitory concentration index (FICI)” value (Pseudomonas aeruginosa [3]) was 0.375, the “fractional inhibitory concentration index (FICI)” value (Pseudomonas aeruginosa [6]) was <0.75 and the “fractional inhibitory concentration index (FICI)” value (Pseudomonas aeruginosa [7]) was 0.313. The MIC (Pseudomonas aeruginosa [10]) was 512 µg/mL, the “fractional inhibitory concentration index (FICI)” value (Pseudomonas aeruginosa [16]) was 1 and the “fractional inhibitory concentration index (FICI)” value (Pseudomonas aeruginosa [17]) was 0.281. The “fractional inhibitory concentration index (FICI)” value (Pseudomonas aeruginosa [18]) was 0.5, the “fractional inhibitory concentration index (FICI)” value (Pseudomonas aeruginosa [21]) was 0.375 and the MIC (Pseudomonas aeruginosa [22]) was 128 µg/mL. For the same molecule, the “fractional inhibitory concentration index (FICI)” value (Pseudomonas aeruginosa [25]) was 0.5, the MIC (Pseudomonas aeruginosa [27]) was 512 µg/mL and the MIC (Pseudomonas aeruginosa [29]) was 128 µg/mL. The MIC (Pseudomonas aeruginosa [34]) was 512 µg/mL, the “fractional inhibitory concentration index (FICI)” value (Pseudomonas aeruginosa [35]) was 0.5 and the “fractional inhibitory concentration index (FICI)” value (Pseudomonas aeruginosa [36]) was 0.5. For the same molecule, the MIC (Pseudomonas aeruginosa [38]) was 512 µg/mL and the “fractional inhibitory concentration index (FICI)” value (Pseudomonas aeruginosa [39]) was 0.313.
